Results taken from ChEMBL document CHEMBL5584224, “Recent advances in c-Met-based dual inhibitors in the treatment of cancers” (Eur J Med Chem, 2024).
pIC50: −log10 of the molar value. One block for each compound: values may come before it.

Columns and labels:
[1] = test system: HCC827; test: Antiproliferative activity against human HCC827 cells; type: functional, cell-based
[2] = molecular target: T1, Tyrosine-protein kinase receptor UFO (Homo sapiens, UniProt P30530); test: Inhibition of AXL (unknown origin)
T1 sequence (P30530 whole entry): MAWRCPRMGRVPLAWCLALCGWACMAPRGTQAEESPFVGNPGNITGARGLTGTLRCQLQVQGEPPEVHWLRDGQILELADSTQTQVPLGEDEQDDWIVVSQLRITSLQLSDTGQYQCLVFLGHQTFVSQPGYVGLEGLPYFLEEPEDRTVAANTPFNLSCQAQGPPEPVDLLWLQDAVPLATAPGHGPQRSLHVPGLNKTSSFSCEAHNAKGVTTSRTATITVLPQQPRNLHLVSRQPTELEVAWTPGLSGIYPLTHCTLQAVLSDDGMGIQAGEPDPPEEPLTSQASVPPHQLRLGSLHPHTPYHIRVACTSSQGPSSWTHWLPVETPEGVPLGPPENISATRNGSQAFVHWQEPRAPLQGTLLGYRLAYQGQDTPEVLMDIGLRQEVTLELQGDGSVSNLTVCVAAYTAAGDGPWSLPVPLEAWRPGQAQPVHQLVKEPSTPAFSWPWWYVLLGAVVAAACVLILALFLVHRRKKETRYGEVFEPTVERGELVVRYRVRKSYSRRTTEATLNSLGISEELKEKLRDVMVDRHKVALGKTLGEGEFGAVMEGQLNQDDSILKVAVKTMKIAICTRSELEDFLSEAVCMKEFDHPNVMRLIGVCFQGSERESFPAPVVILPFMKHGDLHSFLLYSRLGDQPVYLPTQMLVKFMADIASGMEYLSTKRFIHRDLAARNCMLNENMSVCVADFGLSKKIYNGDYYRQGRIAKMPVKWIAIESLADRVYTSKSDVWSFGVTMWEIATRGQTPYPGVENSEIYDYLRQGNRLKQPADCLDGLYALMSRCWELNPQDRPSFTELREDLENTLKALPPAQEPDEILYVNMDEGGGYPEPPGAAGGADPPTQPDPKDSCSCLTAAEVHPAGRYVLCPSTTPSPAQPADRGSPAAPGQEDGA

[3] = molecular target: T2, Hepatocyte growth factor receptor (Homo sapiens, UniProt P08581)
Description: Inhibition of c-MET (unknown origin)

[4] = molecular target: T3, ALK tyrosine kinase receptor (Homo sapiens, UniProt Q9UM73); test: Inhibition of ALK (unknown origin)
[5] = test system: A-431; test: Antiproliferative activity against human A-431 cells assessed as reduction in cell viability incubated for 24 hrs by MTT assay; type: functional, cell-based; conditions: A-431, 24 h
[6] = test system: NCI-H1975; test: Antiproliferative activity against human NCI-H1975 cells assessed as reduction in cell viability incubated for 48 hrs by MTT assay; type: functional, cell-based; conditions: NCI-H1975, 48 h
[7] = molecular target: Histone deacetylase 1 (Homo sapiens, UniProt Q13547); test: Inhibition of HDAC1 (unknown origin) expressed in Sf9 cells using Z-Lys(Ac)-AMC as fluorogenic substrate preincubated for 60 mins followed by substrate addition and measured after 1 hr by fluorescence based microplate analysis
[8] = molecular target: T2, Hepatocyte growth factor receptor; test: Inhibition of c-Met (unknown origin) by mobility shift assay
[9] = test system: A549; test: Antiproliferative activity against human A549 cells assessed as reduction in cell viability incubated for 24 hrs by MTT assay; type: functional, cell-based; conditions: A549, 24 h
[10] = test system: NCI-H322M; test: Antiproliferative activity against human NCI-H322M cells assessed as cell growth inhibition incubated for 72 hrs by MTT assay; type: functional, cell-based
[11] = test system: KB 3-1; test: Antiproliferative activity against human KB-3-1 cells assessed as cell growth inhibition; type: functional, cell-based
[12] = test system: MDA-MB-231; test: Antiproliferative activity against human MDA-MB-231 cells assessed as reduction in cell viability by MTT assay; type: functional, cell-based
[13] = test system: BT-549; test: Antiproliferative activity against human BT-549 cells assessed as reduction in cell viability by MTT assay; type: functional, cell-based
[14] = test system: 4T1; test: Antiproliferative activity against mouse 4T1 cells assessed as reduction in cell viability by MTT assay; type: functional, cell-based
[15] = molecular target: T3, ALK tyrosine kinase receptor
Description: Inhibition of ALK (unknown origin) by TR-FRET assay

T3 sequence (Q9UM73 whole entry): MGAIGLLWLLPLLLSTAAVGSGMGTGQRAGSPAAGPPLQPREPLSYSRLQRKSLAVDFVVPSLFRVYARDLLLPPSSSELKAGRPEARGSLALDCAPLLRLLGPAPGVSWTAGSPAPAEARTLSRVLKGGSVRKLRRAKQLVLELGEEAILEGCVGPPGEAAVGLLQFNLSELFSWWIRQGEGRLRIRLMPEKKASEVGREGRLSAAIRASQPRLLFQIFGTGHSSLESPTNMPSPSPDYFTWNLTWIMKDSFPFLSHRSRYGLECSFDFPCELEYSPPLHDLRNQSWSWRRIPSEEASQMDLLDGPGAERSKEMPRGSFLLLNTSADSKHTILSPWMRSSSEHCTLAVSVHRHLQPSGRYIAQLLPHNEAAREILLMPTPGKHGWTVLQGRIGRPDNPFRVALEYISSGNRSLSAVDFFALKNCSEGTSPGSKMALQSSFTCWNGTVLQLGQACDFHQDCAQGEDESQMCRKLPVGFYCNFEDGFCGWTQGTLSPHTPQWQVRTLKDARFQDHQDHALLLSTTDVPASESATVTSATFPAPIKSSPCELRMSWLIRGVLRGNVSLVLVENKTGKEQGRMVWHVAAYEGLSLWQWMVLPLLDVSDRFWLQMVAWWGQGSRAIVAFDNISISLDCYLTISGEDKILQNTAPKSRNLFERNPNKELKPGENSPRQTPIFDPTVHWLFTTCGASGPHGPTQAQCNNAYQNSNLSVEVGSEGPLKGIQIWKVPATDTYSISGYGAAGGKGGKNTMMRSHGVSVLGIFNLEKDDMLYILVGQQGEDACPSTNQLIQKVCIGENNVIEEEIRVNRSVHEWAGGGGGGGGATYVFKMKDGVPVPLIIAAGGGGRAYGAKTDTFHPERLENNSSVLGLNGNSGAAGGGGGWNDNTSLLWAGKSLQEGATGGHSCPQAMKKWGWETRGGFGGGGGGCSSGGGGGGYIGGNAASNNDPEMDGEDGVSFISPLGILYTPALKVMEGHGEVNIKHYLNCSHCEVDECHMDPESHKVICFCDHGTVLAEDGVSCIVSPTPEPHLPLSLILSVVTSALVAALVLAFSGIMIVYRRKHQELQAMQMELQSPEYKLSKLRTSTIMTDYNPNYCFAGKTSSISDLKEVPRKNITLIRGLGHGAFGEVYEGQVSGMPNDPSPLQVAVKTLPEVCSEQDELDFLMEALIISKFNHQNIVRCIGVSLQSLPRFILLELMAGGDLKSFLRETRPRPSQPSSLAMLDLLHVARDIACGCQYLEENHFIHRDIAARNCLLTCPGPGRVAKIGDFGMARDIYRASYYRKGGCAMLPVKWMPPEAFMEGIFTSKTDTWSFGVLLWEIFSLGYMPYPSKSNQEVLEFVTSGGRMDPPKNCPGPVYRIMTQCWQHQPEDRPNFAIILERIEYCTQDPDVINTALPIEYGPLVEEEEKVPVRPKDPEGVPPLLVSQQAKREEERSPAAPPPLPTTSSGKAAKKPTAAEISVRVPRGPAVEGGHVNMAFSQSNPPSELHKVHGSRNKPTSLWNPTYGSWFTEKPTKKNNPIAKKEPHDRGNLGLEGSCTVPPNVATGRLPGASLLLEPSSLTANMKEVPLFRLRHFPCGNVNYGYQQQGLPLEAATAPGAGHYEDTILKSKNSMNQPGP
T2 sequence (P08581 whole entry): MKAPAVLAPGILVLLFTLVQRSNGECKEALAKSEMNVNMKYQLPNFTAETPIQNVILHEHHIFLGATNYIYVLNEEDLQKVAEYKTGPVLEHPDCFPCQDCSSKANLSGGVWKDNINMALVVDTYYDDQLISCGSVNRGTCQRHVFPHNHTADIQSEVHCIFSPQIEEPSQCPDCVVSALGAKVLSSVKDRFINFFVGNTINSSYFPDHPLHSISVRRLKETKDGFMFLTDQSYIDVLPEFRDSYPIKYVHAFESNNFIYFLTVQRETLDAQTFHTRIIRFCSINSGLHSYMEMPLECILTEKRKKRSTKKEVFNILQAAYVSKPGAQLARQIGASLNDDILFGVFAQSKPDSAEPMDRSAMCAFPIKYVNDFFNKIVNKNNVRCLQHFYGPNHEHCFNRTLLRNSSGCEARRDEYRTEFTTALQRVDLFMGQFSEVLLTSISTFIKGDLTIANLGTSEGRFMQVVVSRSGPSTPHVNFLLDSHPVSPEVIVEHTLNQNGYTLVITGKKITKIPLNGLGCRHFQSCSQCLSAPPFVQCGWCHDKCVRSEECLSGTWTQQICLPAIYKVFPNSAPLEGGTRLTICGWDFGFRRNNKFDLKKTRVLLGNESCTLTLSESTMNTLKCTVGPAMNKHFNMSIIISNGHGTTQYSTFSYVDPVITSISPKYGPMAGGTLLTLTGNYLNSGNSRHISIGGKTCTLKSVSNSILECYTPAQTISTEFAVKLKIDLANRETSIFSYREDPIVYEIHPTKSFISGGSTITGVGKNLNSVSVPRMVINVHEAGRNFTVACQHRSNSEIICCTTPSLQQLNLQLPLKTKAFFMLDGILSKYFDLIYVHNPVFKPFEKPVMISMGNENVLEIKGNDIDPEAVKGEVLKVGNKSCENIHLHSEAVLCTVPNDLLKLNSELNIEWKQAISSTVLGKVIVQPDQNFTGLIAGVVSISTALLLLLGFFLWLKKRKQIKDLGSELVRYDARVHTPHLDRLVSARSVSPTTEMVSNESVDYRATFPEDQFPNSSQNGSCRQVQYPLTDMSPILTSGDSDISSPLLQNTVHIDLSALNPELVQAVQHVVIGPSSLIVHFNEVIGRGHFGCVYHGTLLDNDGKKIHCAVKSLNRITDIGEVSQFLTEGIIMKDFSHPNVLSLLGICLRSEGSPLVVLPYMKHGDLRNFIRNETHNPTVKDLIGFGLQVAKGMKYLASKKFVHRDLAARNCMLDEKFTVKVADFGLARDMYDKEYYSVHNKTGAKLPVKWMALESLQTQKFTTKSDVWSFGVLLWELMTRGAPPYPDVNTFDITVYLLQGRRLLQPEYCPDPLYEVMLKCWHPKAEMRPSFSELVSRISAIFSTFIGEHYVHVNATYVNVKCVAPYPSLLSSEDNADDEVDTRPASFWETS
Sequence of Histone deacetylase 1 (Q13547 whole entry): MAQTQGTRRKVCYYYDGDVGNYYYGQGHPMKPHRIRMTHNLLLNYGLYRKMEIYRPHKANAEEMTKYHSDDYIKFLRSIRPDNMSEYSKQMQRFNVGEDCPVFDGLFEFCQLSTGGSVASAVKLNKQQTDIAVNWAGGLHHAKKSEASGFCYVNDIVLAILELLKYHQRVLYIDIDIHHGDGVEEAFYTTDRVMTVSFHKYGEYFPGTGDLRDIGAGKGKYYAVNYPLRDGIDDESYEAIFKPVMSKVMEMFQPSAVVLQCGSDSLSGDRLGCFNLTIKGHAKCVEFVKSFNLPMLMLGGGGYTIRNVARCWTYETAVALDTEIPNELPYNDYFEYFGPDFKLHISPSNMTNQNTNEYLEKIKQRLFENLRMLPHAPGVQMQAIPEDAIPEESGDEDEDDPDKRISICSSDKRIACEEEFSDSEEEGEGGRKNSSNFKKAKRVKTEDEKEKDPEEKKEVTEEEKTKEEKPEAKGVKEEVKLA

pIC50 [1]: > 7.00
Structure (SMILES): COCCN1CCN(C(=O)C#Cc2c(Oc3ccc(NC(=O)c4cn(C(C)C)c(=O)n(-c5ccc(F)cc5)c4=O)cc3F)ccnc2N)CC1

pIC50 [2]: 8.15
Structure (SMILES): CC(C)n1cc(C(=O)Nc2ccc(Oc3ccnc4c3Oc3ccccc3N4)c(F)c2)c(=O)c(-c2ccc(F)cc2)c1

pIC50 [1]: > 7.00
pIC50 [3]: 8.00
Structure (SMILES): Nc1nccc(Oc2ccc(NC(=O)c3ccnn(-c4ccc(F)cc4)c3=O)cc2F)c1C#CCC1CCNCC1

pIC50 [4]: 7.69
pIC50 [5]: 6.13
pIC50 [6]: 7.07
Structure (SMILES): CN1CCc2ccc(COCC3Cc4cn5ncnc(-c6cnn(C7CCNCC7)c6)c5c4C3)cc21 (configuration not stated)

pIC50 [1]: > 7.00
Structure (SMILES): Cc1nc(Cn2cc(C(=O)Nc3ccc(Oc4ccnc(N)c4C#CCC4CCN(C)CC4)c(F)c3)c(=O)n(-c3ccc(F)cc3)c2=O)cs1

pIC50 [7]: 7.42
pIC50 [8]: 9.15
Structure (SMILES): Nc1ccccc1NC(=O)c1ccc(OCCCOc2ccc3c(OCCn4nc(-c5cn[nH]c5)ccc4=O)ccnc3c2)cn1

pIC50 [1]: > 7.00
Structure (SMILES): COCCN1CCN(C(=O)C#Cc2c(Oc3ccc(NC(=O)c4ccnn(-c5ccc(F)cc5)c4=O)cc3F)ccnc2N)CC1

pIC50 [1]: > 7.00
Structure (SMILES): CC(C)n1cc(C(=O)Nc2ccc(Oc3ccnc(N)c3C#CC(=O)N3CCNCC3)c(F)c2)c(=O)n(-c2ccc(F)cc2)c1=O

pIC50 [2]: < 6.00
Structure (SMILES): COc1cc2nccc(Oc3ccc(Nc4nccc5ccn(-c6ccc(Br)cc6)c(=O)c45)cc3F)c2cc1OC

pIC50 [2]: 7.76
Structure (SMILES): COc1cc2nccc(Oc3ccc(Nc4nccc5ccn(-c6ccc(C)cc6)c(=O)c45)cc3F)c2cc1OC

pIC50 [5]: < 6.00
pIC50 [6]: 7.22
Structure (SMILES): c1ccc2oc(COCC3Cc4cn5ncnc(-c6cnn(C7CCNCC7)c6)c5c4C3)cc2c1 (configuration not stated)

pIC50 [3]: 8.08
Structure (SMILES): N#CC1=C(N)OC2=C(c3sc(N)c(C#N)c3CC2)C1c1ccccc1 (configuration not stated)

pIC50 [4]: 9.62
pIC50 [5]: 7.00
pIC50 [6]: 8.21
Structure (SMILES): Fc1ccc(Cl)c(COCC2Cc3cn4ncnc(-c5cnn(C6CCNCC6)c5)c4c3C2)c1Cl (configuration not stated)

pIC50 [1]: > 7.00
Structure (SMILES): COCCN1CCN(C(C)(C)C#Cc2c(Oc3ccc(NC(=O)c4cn(C(C)C)c(=O)n(-c5ccc(F)cc5)c4=O)cc3F)ccnc2N)CC1

pIC50 [9]: 5.00
pIC50 [10]: 4.58
Structure (SMILES): C/C=C(/C=O)[C@@H](CC=O)CC(=O)OCCc1ccc(O)cc1 [(-)-OLEOCANTHAL]

Structure (SMILES): COc1cc2c(c(OC)c1OC)-c1ccc(OC)c(=O)cc1[C@@H](NC(C)=O)CC2 [COLCHICINE]
pIC50 [11]: 5.72

pIC50 [12]: 4.62
pIC50 [13]: 4.61
pIC50 [14]: 5.11
Structure (SMILES): COc1cc2nc(N3CCN(C(=O)C4COc5ccccc5O4)CC3)nc(N)c2cc1OC (configuration not stated) [DOXAZOSIN]

pIC50 [11]: 8.22
Structure (SMILES): COc1cccc2c1C(=O)c1c(O)c3c(c(O)c1C2=O)C[C@@](O)(C(=O)CO)C[C@@H]3O[C@H]1C[C@H](N)[C@H](O)[C@H](C)O1 [DOXORUBICIN]

pIC50 [15]: 7.84
Structure (SMILES): COc1cc(N2CCNC[C@@H]2C)ncc1-c1cnc(N)c(O[C@H](C)c2c(Cl)ccc(F)c2Cl)c1 [ENVONALKIB]

pIC50 [11]: 8.40
Structure (SMILES): COCCNCc1ccc(-c2cc3nccc(Oc4ccc(NC(=S)NC(=O)Cc5ccc(F)cc5)cc4F)c3s2)nc1 [GLESATINIB]

pIC50 [3]: 7.48
Structure (SMILES): Cc1c(C(=O)Nc2ccc(Oc3ccnc4cc(OCC(C)(C)O)ccc34)c(F)c2)c(=O)n(-c2ccccc2)n1C [NINGETINIB]

pIC50 [11]: 7.54
Structure (SMILES): CC(=O)O[C@H]1C(=O)[C@@]2(C)[C@H]([C@H](OC(=O)c3ccccc3)[C@]3(O)C[C@H](OC(=O)[C@H](O)[C@@H](NC(=O)c4ccccc4)c4ccccc4)C(C)=C1C3(C)C)[C@]1(OC(C)=O)CO[C@@H]1C[C@@H]2O [PACLITAXEL]
